From patent US20080306056A1, “PYRAZOLE-DERIVATIVES AS FACTOR Xa INHIBITORS” (SANOFI-AVENTIS DEUTSCHLAND GMBH, priority 2002, published 2008) come the findings set out here.

T1 sequence (P00742 235-488 limits assumed): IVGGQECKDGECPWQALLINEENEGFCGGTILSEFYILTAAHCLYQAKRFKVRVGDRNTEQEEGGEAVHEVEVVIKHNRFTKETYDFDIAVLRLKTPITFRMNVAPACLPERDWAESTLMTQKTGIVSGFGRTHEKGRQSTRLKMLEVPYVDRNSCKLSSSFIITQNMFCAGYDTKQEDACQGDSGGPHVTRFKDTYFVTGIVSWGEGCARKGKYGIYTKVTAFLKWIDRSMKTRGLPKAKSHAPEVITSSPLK
T1 sequence (P00742 41-179 partner limits assumed): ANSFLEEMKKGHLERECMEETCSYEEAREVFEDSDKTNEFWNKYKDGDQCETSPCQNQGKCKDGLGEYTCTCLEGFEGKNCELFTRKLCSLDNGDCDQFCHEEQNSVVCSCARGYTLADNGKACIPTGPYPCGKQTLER

This test addresses T1, human factor Xa (Homo sapiens, UniProt P00742).
T1 construct: 25 μl human factor Xa (Enzyme Research Laboratories, Inc; South Bend, Ind.); purchased Enzyme Research Laboratories, Inc; South Bend, Ind
Briefly: Factor Xa assay (chromogenic, purified enzyme). The test is classed as biochemical. The settings on record: inhibition constant for factor Xa; chromogenic substrate S-2765 140 μM, enzyme 0.5 nM, 25° C., pH 7.8; Ki=IC50/{1+(substrate concentration/Km)}; read-out: Ki(FXa). From the text:
The ability of the compound of formulae I, Ib and Ic to inhibit factor Xa or factor VIIa or other enzymes like thrombin, plasmin, or trypsin can be assessed by determining the concentration of the compound of the formulae I, Ib and Ic that inhibits enzyme activity by 50%, i.e. the IC50 value, which was related to the inhibition constant Ki. Purified enzymes were used in chromogenic assays. The concentration of inhibitor that causes a 50% decrease in the rate of substrate hydrolysis was determined by linear regression after plotting the relative rates of hydrolysis (compared to the uninhibited control) versus the log of the concentration of the compound of formulae I, Ib and Ic. For calculating the inhibition constant Ki, the IC50 value was corrected for competition with substrate using the formula wherein Km is the Michaelis-Menten constant (Chen and Prusoff, Biochem.
Ki=IC50/{1+(substrate concentration/Km)}
Pharmacol. 22 (1973) 3099-3108; I. H. Segal, Enzyme Kinetics, 1975, John Wiley & Sons, New York, 100-125; which were incorporated herein by reference).
The IC50 was determined by combining in appropriate wells of a Costar half-area microtiter plate 25 μl human factor Xa (Enzyme Research Laboratories, Inc.; South Bend, Ind.) in TBS-PEG; 40 μl 10% (v/v) DMSO in TBS-PEG (uninhibited control) or various concentrations of the compound to be tested diluted in 10% (v/v) DMSO in TBS-PEG; and substrate S-2765 (N(α)-benzyloxycarbonyl-D-Arg-Gly-L-Arg-p-nitroanilide; Kabi Pharmacia, Inc.; Franklin, Ohio) in TBS-PEG.
The assay was performed by pre-incubating the compound of formulae I, Ib and Ic plus enzyme for 10 min. Then the assay was initiated by adding substrate to obtain a final volume of 100 μl. The initial velocity of chromogenic substrate hydrolysis was measured by the change in absorbance at 405 nm using a Bio-tek Instruments kinetic plate reader (Ceres UV900HDi) at 25° C. during the linear portion of the time course (usually 1.5 min after addition of substrate). The enzyme concentration was 0.5 nM and substrate concentration was 140 μM.
The inhibitory activity towards factor VIIa/tissue factor activity was determined using a chromogenic assay essentially as described previously (J. A. Ostrem et al., Biochemistry 37 (1998) 1053-1059 which was incorporated herein by reference). Kinetic assays were conducted at 25° C. in half-area microtiter plates (Costar Corp., Cambridge, Mass.) using a kinetic plate reader (Molecular Devices Spectramax 250). A typical assay consisted of 25 μl human factor VIIa and TF (5 nM and 10 nM, respective final concentration) combined with 40 μl of inhibitor dilutions in 10% DMSO/TBS-PEG buffer (50 mM Tris, 15 mM NaCl, 5 mM CaCl2, 0.05% PEG 8000, pH 8.15). Following a 15 minute preincubation period, the assay was initiated by the addition of 35 μl of the chromogenic substrate S-2288 (D-Ile-Pro-Arg-p-nitroanilide, Pharmacia Hepar Inc., 500 μM final concentration).
`CNC(=O)c1cc(C(=O)NC2CCN(C(C)C)CC2)n(Cc2cc(-c3ccc(Cl)s3)on2)n1` [Example 26, 1-[5-(5-Chloro-thiophen-2-yl)-isoxazol-3-ylmethyl]-1H-pyrazole-3,5-dicarboxylic acid 5-[(1-isopropyl-piperidin-4-yl)-amide] 3-methylamide]: the Ki amounted to 68 nM.
Under `CC(C)N1CCC(NC(=O)c2cc(C(=O)NCCO)nn2Cc2cc(-c3ccc(Cl)s3)on2)CC1` [Example 27, 1-[5-(5-Chloro-thiophen-2-yl)-isoxazol-3-ylmethyl]-1H-pyrazole-3,5-dicarboxylic acid 3-[(2-hydroxy-ethyl)-amide] 5-[(1-isopropyl-piperidin-4-yl)-amide]] stands 88 nM.
Under `CC(C)N1CCC(NC(=O)c2cc(C(=O)NCC(=O)O)nn2Cc2cc(-c3ccc(Cl)s3)on2)CC1` [Example 28, {[1-[5-(5-Chloro-thiophen-2-yl)-isoxazol-3-ylmethyl]-5-(1-isopropyl-piperidin-4-ylcarbamoyl)-1H-pyrazole-3-carbonyl]-amino}-acetic acid] stands 82 nM.
For the compound `CC(C)N1CCC(NC(=O)c2cc(-c3n[nH]c(=O)o3)nn2Cc2cc(-c3ccc(Cl)s3)on2)CC1` [Example 29, 2-[5-(5-Chloro-thiophen-2-yl)-isoxazol-3-ylmethyl]-5-(5-oxo-4,5-dihydro-[1,3,4]oxadiazol-2-yl)-2H-pyrazole-3-carboxylic acid (1-isopropyl-piperidin-4-yl)-amide], the Ki turned out to be 155 nM.
Regarding `CC(C)N1CCC(NC(=O)c2cc(C(=O)N3CCN(CCO)CC3)nn2Cc2cc(-c3ccc(Cl)s3)on2)CC1` [Example 30, 2-[5-(5-Chloro-thiophen-2-yl)-isoxazol-3-ylmethyl]-5-[4-(2-hydroxy-ethyl)-piperazine-1-carbonyl]-2H-pyrazole-3-carboxylic acid (1-isopropyl-piperidin-4-yl)-amide], the Ki worked out at 262 nM.
As for `COCCN(CCOC)C(=O)c1cc(C(=O)NC2CCN(C(C)C)CC2)n(Cc2cc(-c3ccc(Cl)s3)on2)n1` [Example 31, 1-[5-(5-Chloro-thiophen-2-yl)-isoxazol-3-ylmethyl]-1H-pyrazole-3,5-dicarboxylic acid 3-[bis-(2-methoxy-ethyl)-amide] 5-[(1-isopropyl-piperidin-4-yl)-amide]], the Ki stood at 180 nM.
In the case of `CC(C)N1CCC(NC(=O)c2cc(C(=O)OCCN3CCNC3=O)nn2Cc2cc(-c3ccc(Cl)s3)on2)CC1` [Example 32, 1-[5-(5-Chloro-thiophen-2-yl)-isoxazol-3-ylmethyl]-5-(1-isopropyl-piperidin-4-ylcarbamoyl)-1H-pyrazole-3-carboxylic acid 2-(2-oxo-imidazolidin-1-yl)-ethyl ester] it was 45 nM; in that of `CC(C)N1CCC(NC(=O)c2cc(C(=O)N(C)CC(=O)O)nn2Cc2cc(-c3ccc(Cl)s3)on2)CC1` [Example 33, {[1-[5-(5-Chloro-thiophen-2-yl)-isoxazol-3-ylmethyl]-5-(1-isopropyl-piperidin-4-ylcarbamoyl)-1H-pyrazole-3-carbonyl]-methyl-amino}-acetic acid], 82 nM; in that of `CC(C)N1CCC(NC(=O)c2cc(C(=O)N3CCSCC3)nn2Cc2cc(-c3ccc(Cl)s3)on2)CC1` [Example 34, 2-[5-(5-Chloro-thiophen-2-yl)-isoxazol-3-ylmethyl]-5-(thiomorpholine-4-carbonyl)-2H-pyrazole-3-carboxylic acid (1-isopropyl-piperidin-4-yl)-amide], 108 nM.
In the case of `CC(C)N1CCC(NC(=O)c2cc(C(=O)N3CCC(O)CC3)nn2Cc2cc(-c3ccc(Cl)s3)on2)CC1` [Example 35, 2-[5-(5-Chloro-thiophen-2-yl)-isoxazol-3-ylmethyl]-5-(4-hydroxy-piperidine-1-carbonyl)-2H-pyrazole-3-carboxylic acid (1-isopropyl-piperidin-4-yl)-amide] it was 163 nM; in that of `CC(C)N1CCC(NC(=O)c2cc(C(=O)N3CCC(O)C3)nn2Cc2cc(-c3ccc(Cl)s3)on2)CC1` (centres unmarked) [Example 36, 2-[5-(5-Chloro-thiophen-2-yl)-isoxazol-3-ylmethyl]-5-(3-hydroxy-pyrrolidine-1-carbonyl)-2H-pyrazole-3-carboxylic acid (1-isopropyl-piperidin-4-yl)-amide], 122 nM; in that of `CC(C)N1CCC(NC(=O)c2cc(C(=O)N3CCC(CO)CC3)nn2Cc2cc(-c3ccc(Cl)s3)on2)CC1` [Example 37, 2-[5-(5-Chloro-thiophen-2-yl)-isoxazol-3-ylmethyl]-5-(4-hydroxymethyl-piperidine-1-carbonyl)-2H-pyrazole-3-carboxylic acid (1-isopropyl-piperidin-4-yl)-amide], 195 nM.
As for `CC(C)N1CCC(NC(=O)c2cc(C(=O)N3CCC4(CCCC4)CC3)nn2Cc2cc(-c3ccc(Cl)s3)on2)CC1` [Example 38, 5-(8-Aza-spiro[4.5]decane-8-carbonyl)-2-[5-(5-chloro-thiophen-2-yl)-isoxazol-3-ylmethyl]-2H-pyrazole-3-carboxylic acid (1-isopropyl-piperidin-4-yl)-amide], the Ki is 932 nM.
On to `CC(C)N1CCC(NC(=O)c2cc(C(=O)N3CCC(S(C)(=O)=O)C3)nn2Cc2cc(-c3ccc(Cl)s3)on2)CC1` (centres unmarked) [Example 39, 2-[5-(5-Chloro-thiophen-2-yl)-isoxazol-3-ylmethyl]-5-(3-methanesulfonyl-pyrrolidine-1-carbonyl)-2H-pyrazole-3-carboxylic acid (1-isopropyl-piperidin-4-yl)-amide], for which the Ki amounted to 145 nM.
In the case of `CC(C)N1CCC(NC(=O)c2cc(C(=O)N(C)C3CCS(=O)(=O)C3)nn2Cc2cc(-c3ccc(Cl)s3)on2)CC1` (centres unmarked) [Example 40, 1-[5-(5-Chloro-thiophen-2-yl)-isoxazol-3-ylmethyl]-1H-pyrazole-3,5-dicarboxylic acid 3-[(1,1-dioxo-tetrahydro-1-thiophen-3-yl)-methyl-amide] 5-[(1-isopropyl-piperidin-4-yl)-amide]] it was 123 nM; in that of `CC(C)N1CCC(NC(=O)c2cc(C(=O)N3CCNC(=O)C3)nn2Cc2cc(-c3ccc(Cl)s3)on2)CC1` [Example 41, 2-[5-(5-Chloro-thiophen-2-yl)-isoxazol-3-ylmethyl]-5-(3-oxo-piperazine-1-carbonyl)-2H-pyrazole-3-carboxylic acid (1-isopropyl-piperidin-4-yl)-amide], 81 nM; in that of `CC(C)N1CCC(NC(=O)c2cc(C(=O)N3CCCOCC3)nn2Cc2cc(-c3ccc(Cl)s3)on2)CC1` [Example 42, 2-[5-(5-Chloro-thiophen-2-yl)-isoxazol-3-ylmethyl]-5-([1,4]oxazepane-4-carbonyl)-2H-pyrazole-3-carboxylic acid (1-isopropyl-piperidin-4-yl)-amide], 84 nM.
Under `CC(C)N1CCC(NC(=O)c2cc(C(=O)N3CCCC3C(F)(F)F)nn2Cc2cc(-c3ccc(Cl)s3)on2)CC1` (centres unmarked) [Example 43, 2-[5-(5-Chloro-thiophen-2-yl)-isoxazol-3-ylmethyl]-5-(2-trifluoromethyl-pyrrolidine-1-carbonyl)-2H-pyrazole-3-carboxylic acid (1-isopropyl-piperidin-4-yl)-amide] stands 72 nM; under `CC(C)N1CCC(NC(=O)c2cc(C(=O)NCCS(N)(=O)=O)nn2Cc2cc(-c3ccc(Cl)s3)on2)CC1` [Example 44, 1-[5-(5-Chloro-thiophen-2-yl)-isoxazol-3-ylmethyl]-1H-pyrazole-3,5-dicarboxylic acid 5-[(1-isopropyl-piperidin-4-yl)-amide] 3-[(2-sulfamoyl-ethyl)-amide]], 46 nM.
For the compound `CC(C)N1CCC(NC(=O)c2cc(C(=O)NC3CC3)nn2Cc2cc(-c3ccc(Cl)s3)on2)CC1` [Example 45, 1-[5-(5-Chloro-thiophen-2-yl)-isoxazol-3-ylmethyl]-1H-pyrazole-3,5-dicarboxylic acid 3-cyclopropylamide 5-[(1-isopropyl-piperidin-4-yl)-amide]], the Ki came out at 61 nM.

Usually Ki stands for a measure of affinity in units of concentration, obtained from inhibition or displacement.
